# Experimental data from patent publication US20240343733A1, “COMPOUNDS FOR TARGETING DEGRADATION OF IRAK4 PROTEINS” (BIOGEN MA INC., priority 2021, published 2024).
# Biological target: T1, IRAK4 (Homo sapiens, UniProt Q9NWZ3)
# T1 construct: 293Tcells expressing HiBiT-tagged IRAK4 were then added into 384-well plates
# T1 sequence (Q9NWZ3 1-460): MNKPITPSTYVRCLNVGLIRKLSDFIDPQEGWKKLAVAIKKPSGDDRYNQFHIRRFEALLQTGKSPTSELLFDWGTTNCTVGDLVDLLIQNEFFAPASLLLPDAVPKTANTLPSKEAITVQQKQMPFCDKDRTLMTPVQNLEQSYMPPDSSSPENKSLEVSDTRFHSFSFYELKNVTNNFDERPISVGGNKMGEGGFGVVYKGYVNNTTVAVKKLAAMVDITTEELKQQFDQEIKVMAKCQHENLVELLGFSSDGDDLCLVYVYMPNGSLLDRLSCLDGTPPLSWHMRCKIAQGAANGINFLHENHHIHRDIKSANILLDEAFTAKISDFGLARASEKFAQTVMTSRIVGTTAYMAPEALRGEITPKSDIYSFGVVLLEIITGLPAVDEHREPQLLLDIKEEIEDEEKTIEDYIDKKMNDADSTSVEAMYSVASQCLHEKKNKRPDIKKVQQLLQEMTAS
# Assay: IRAK4 Degradation Assay, HiBiT Method
# Type: cell-based
# Settings: 293T cells expressing HiBiT-tagged IRAK4, 6 hours
# Method: Assay 1. IRAK4 Degradation Assay, HiBiT Method
# Selected compounds were tested in an IRAK4 degradation assay using the HiBiT Method.
# Phenol red-free Dulbecco's modified Eagle medium (DMEM) and fetal bovine serum (FBS) were purchased from Gibco (Grand Island, NY, USA). The Nano-Glo® HiBiT Lytic Assay System was purchased from Promega (Madison, WI, USA). Cell culture flasks and 384-well microplates were acquired from VWR (Radnor, PA, USA). The 293Tcell line was engineered by knocking-in a HiBiT fusion tag into the C-terminal of the IRAK4 gene in 293T cells (Synthego, Redwood City, CA, USA).
# IRAK4 degradation was measured via the quantification of luminescent signals using the Nano-Glo® HiBiT Lytic Assay kit. Test compounds were added to 384-well plates in duplicate using an 11-point half-log dilution series, with the highest dose set at […]. 293Tcells expressing HiBiT-tagged IRAK4 were then added into 384-well plates at a cell density of 10,000 cells per well. The plates were kept at 37° C. with 5% CO2 for 6 hours. Cells that were treated only with DMSO served as the negative control; wells that contained only assay media served as the background control. After the 6-hour incubation, Nano-Glo® HiBiT Lytic Assay reagents were added to the cells. Luminescence was acquired using an EnVision™ Multilabel Reader (PerkinElmer, Santa Clara, CA, USA).
row,DC50,Structure (SMILES)
1,10 to 100 nM,"CC(C)Oc1cc2nc(C3CCN(C(=O)CC4CC5(C4)CN(c4ccc(C6CCC(=O)NC6=O)cc4)C5)CC3)cn2cc1C(=O)Nc1cccc(C(F)F)n1 (stereo not drawn) [Example 90, N-[6-(difluoromethyl)-2-pyridyl]-2-[1-[2-[2-[4-(2,6-dioxo-3-piperidyl)phenyl]-2-azaspiro[3.3]heptan-6-yl]acetyl]-4-piperidyl]-7-isopropoxy-imidazo[1,2-a]pyridine-6-carboxamide]"
2,< 10 nM,"CC(C)Oc1cc2nn(C3CCN(C(=O)CN4CCC(c5ccc(C6CCC(=O)NC6=O)cc5)CC4)CC3)cc2cc1C(=O)Nc1cnn2cccnc12 (stereo not drawn) [Example 56, 2-(1-(2-(4-(4-(2,6-dioxopiperidin-3-yl)phenyl)piperidin-1-yl)acetyl)piperidin-4-yl)-6-isopropoxy-N-(pyrazolo[1,5-a]pyrimidin-3-yl)-2H-indazole-5-carboxamide]"
3,< 10 nM,"CC(C)Oc1cc2nc(C3CCN(C(=O)NC4CCN(c5ncc(C6CCC(=O)NC6=O)cc5F)CC4)CC3)cn2cc1C(=O)Nc1cnn2cccnc12 (stereo not drawn) [Example 158, 2-(1-((1-(5-(2,6-dioxopiperidin-3-yl)-3-fluoropyridin-2-yl)piperidin-4-yl)carbamoyl)piperidin-4-yl)-7-isopropoxy-N-(pyrazolo[1,5-a]pyrimidin-3-yl)imidazo[1,2-a]pyridine-6-carboxamide]"
4,10 to 100 nM,"CC(C)Oc1cc2nc(C3CCC(CN4CCC(c5ccc(C6CCC(=O)NC6=O)cc5)CC4)CC3)cn2cc1C(=O)Nc1cccc(C(F)F)n1 (stereo not drawn) [Example 15, N-[6-(difluoromethyl)-2-pyridyl]-2-[4-[[4-[4-(2,6-dioxo-3-piperidyl)phenyl]-1-piperidyl]methyl]cyclohexyl]-7-isopropoxy-imidazo[1,2-a]pyridine-6-carboxamide]"
5,10 to 100 nM,"CC(C)Oc1cc2nc([C@H]3CC[C@H](CN(C)C4CCN(c5ccc6c(c5)n(C)c(=O)n6C5CCC(=O)NC5=O)CC4)CC3)cn2cc1C(=O)Nc1cccc(C(F)(F)F)n1 (stereo partly drawn) [Example 10, 2-[4-[[[1-[1-(2,6-dioxo-3-piperidyl)-3-methyl-2-oxo-benzimidazol-5-yl]-4-piperidyl]-methyl-amino]methyl]cyclohexyl]-7-isopropoxy-N-[6-(trifluoromethyl)-2-pyridyl]imidazo[1,2-a]pyridine-6-carboxamide]"
6,< 10 nM,"CC(C)Oc1cc2nc(C3CCN(C(=O)NC4CCN(c5ccc(C6CCC(=O)NC6=O)cn5)CC4)CC3)cn2cc1C(=O)Nc1cnn2cccnc12 (stereo not drawn) [Example 157, 2-[1-[[1-[5-(2,6-dioxo-3-piperidyl)-2-pyridyl]-4-piperidyl]carbamoyl]-4-piperidyl]-7-isopropoxy-N-pyrazolo[1,5-a]pyrimidin-3-yl-imidazo[1,2-a]pyridine-6-carboxamide]"
7,10 to 100 nM,"CC(C)Oc1cc2nc(C3CCN(C(=O)CN4CCC(c5ccc6c(C7CCC(=O)NC7=O)nn(C)c6c5)C(F)(F)C4)CC3)cn2cc1C(=O)Nc1cccc(C(F)F)n1 (stereo not drawn) [Example 78, N-[6-(difluoromethyl)-2-pyridyl]-2-[1-[2-[4-[3-(2,6-dioxo-3-piperidyl)-1-methyl-indazol-6-yl]-3,3-difluoro-1-piperidyl]acetyl]-4-piperidyl]-7-isopropoxy-imidazo[1,2-a]pyridine-6-carboxamide]"
8,< 10 nM,"CC(C)Oc1cc2nn(C3CCN(C(=O)CN4CCC(c5ccc(C6CCC(=O)NC6=O)cc5)CC4)CC3)cc2cc1C(=O)Nc1cccc(C(F)F)n1 (stereo not drawn) [Example 62, N-[6-(difluoromethyl)-2-pyridyl]-2-[1-[2-[4-[4-(2,6-dioxo-3-piperidyl)phenyl]-1-piperidyl]acetyl]-4-piperidyl]-6-isopropoxy-indazole-5-carboxamide]"
9,10 to 100 nM,"CC(C)Oc1cc2nc(C3CCN(CC(=O)N4CCC(c5ccc(C6(F)CCC(=O)NC6=O)cc5)CC4)CC3)cn2cc1C(=O)Nc1ccn(C)n1 (stereo not drawn) [Example 102, 2-[1-[2-[4-[4-(3-fluoro-2,6-dioxo-3-piperidyl)phenyl]-1-piperidyl]-2-oxo-ethyl]-4-piperidyl]-7-isopropoxy-N-(1-methylpyrazol-3-yl)imidazo[1,2-a]pyridine-6-carboxamide]"
10,< 10 nM,"CC(C)Oc1cc2nn([C@H]3CC[C@H](CN4CCN(c5ncc(C6CCC(=O)NC6=O)cc5F)CC(O)C4)CC3)cc2cc1C(=O)Nc1cccn([C@H]2C[C@H]2F)c1=O (stereo partly drawn) [Example 119, 2-((1r,4S)-4-((4-(5-(2,6-dioxopiperidin-3-yl)-3-fluoropyridin-2-yl)-6-hydroxy-1,4-diazepan-1-yl)methyl)cyclohexyl)-N-(1-((1S,2R)-2-fluorocyclopropyl)-2-oxo-1,2-dihydropyridin-3-yl)-6-isopropoxy-2H-indazole-5-carboxamide]"
11,10 to 100 nM,"CC(C)Oc1cc2nc([C@H]3CC[C@H](CN(C)C4CCN(c5cccc(C6CCC(=O)NC6=O)c5)CC4)CC3)cn2cc1C(=O)Nc1cccc(C(F)(F)F)n1 (stereo partly drawn) [Example 11, 2-[4-[[[1-[3-(2,6-dioxo-3-piperidyl)phenyl]-4-piperidyl]-methyl-amino]methyl]cyclohexyl]-7-isopropoxy-N-[6-(trifluoromethyl)-2-pyridyl]imidazo[1,2-a]pyridine-6-carboxamide]"
12,< 10 nM,"CC(C)Oc1cc2nc([C@H]3CC[C@H](CN4CC[C@H](c5ccc6c(N7CCC(=O)NC7=O)nn(C)c6c5)[C@H](O)C4)CC3)cn2cc1C(=O)Nc1cccn([C@H]2C[C@H]2F)c1=O [Example 171, 2-((1S,4S)-4-(((3S,4R)-4-(3-(2,4-dioxotetrahydropyrimidin-1(2H)-yl)-1-methyl-1H-indazol-6-yl)-3-hydroxypiperidin-1-yl)methyl)cyclohexyl)-N-(1-((1S,2R)-2-fluorocyclopropyl)-2-oxo-1,2-dihydropyridin-3-yl)-7-isopropoxyimidazo[1,2-a]pyridine-6-carboxamide]"
13,10 to 100 nM,"CC(C)Oc1cc2nc(C3CCN(CC(=O)N4CC5(C4)CN(c4ccc(C6CCC(=O)NC6=O)cc4)C5)CC3)cn2cc1C(=O)Nc1cccc(C(F)F)n1 (stereo not drawn) [Example 110, N-[6-(difluoromethyl)-2-pyridyl]-2-[1-[2-[6-[4-(2,6-dioxo-3-piperidyl)phenyl]-2,6-diazaspiro[3.3]heptan-2-yl]-2-oxo-ethyl]-4-piperidyl]-7-isopropoxy-imidazo[1,2-a]pyridine-6-carboxamide]"
14,10 to 100 nM,"Cc1cn(C2CCC(=O)NC2=O)c2ccc(C3CCN(C[C@H]4CC[C@H](c5cn6cc(C(=O)Nc7cccc(C(F)F)n7)c(OC(C)C)cc6n5)CC4)CC3)cc12 (stereo partly drawn) [Example 44, N-[6-(difluoromethyl)-2-pyridyl]-2-[4-[[4-[1-(2,6-dioxo-3-piperidyl)-3-methyl-indol-5-yl]-1-piperidyl]methyl]cyclohexyl]-7-isopropoxy-imidazo[1,2-a]pyridine-6-carboxamide]"
15,> 1000 nM,"CC(C)Oc1cc2nc([C@H]3CC[C@H](CN(C)C4CCN(Cc5ccc(NC6CCC(=O)NC6=O)cc5)CC4)CC3)cn2cc1C(=O)Nc1cccc(C(F)(F)F)n1 (stereo partly drawn) [Example 8, 2-[4-[[[1-[[4-[(2,6-dioxo-3-piperidyl)amino]phenyl]methyl]-4-piperidyl]-methyl-amino]methyl]cyclohexyl]-7-isopropoxy-N-[6-(trifluoromethyl)-2-pyridyl]imidazo[1,2-a]pyridine-6-carboxamide]"
16,10 to 100 nM,"CC(C)Oc1cc2nc([C@H]3CC[C@H](CN(C)C4CCN(c5cccc(C6CCC(=O)NC6=O)c5)CC4)CC3)cn2cc1C(=O)Nc1cccc(C(F)F)n1 (stereo partly drawn) [Example 28, N-[6-(difluoromethyl)-2-pyridyl]-2-[4-[[[1-[3-(2,6-dioxo-3-piperidyl)phenyl]-4-piperidyl]-methyl-amino]methyl]cyclohexyl]-7-isopropoxy-imidazo[1,2-a]pyridine-6-carboxamide]"
17,< 10 nM,"CC(C)Oc1cc2nn([C@H]3CC[C@H](CN4CCC(c5ccc6c(N7CCC(=O)NC7=O)nn(C)c6c5)CC4)CC3)cc2cc1C(=O)Nc1cccn([C@H]2C[C@H]2F)c1=O [Example 144, 2-((1r,4S)-4-((4-(3-(2,4-dioxotetrahydropyrimidin-1(2H)-yl)-1-methyl-1H-indazol-6-yl)piperidin-1-yl)methyl)cyclohexyl)-N-(1-((1S,2R)-2-fluorocyclopropyl)-2-oxo-1,2-dihydropyridin-3-yl)-6-isopropoxy-2H-indazole-5-carboxamide]"
18,10 to 100 nM,"CC(C)Oc1cc2nc(C3CCN(CC(=O)N4CCC(c5ccc(C6CCC(=O)NC6=O)cc5)CC4)CC3)cn2cc1C(=O)Nc1cccc(C(F)F)n1 (stereo not drawn) [Example 99, N-[6-(difluoromethyl)-2-pyridyl]-2-[1-[2-[4-[4-(2,6-dioxo-3-piperidyl)phenyl]-1-piperidyl]-2-oxo-ethyl]-4-piperidyl]-7-isopropoxy-imidazo[1,2-a]pyridine-6-carboxamide]"
